Test systems include HOP-62 NSCLC; UACC-62 melanoma; K-562 leukemia; A498 renal; HCT-15 colon; SF-295 CNS; RPMI-8226 leukemia; UACC-257 melanoma; PC-3 prostate; SF-268 CNS.
What all share (assay): DTP human tumour cell line panel, 48 h

“And” between values parts separate entries of the source, which are not always exact repeats. Identical values can stand only once.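 Grown in 96-well plates, cells were treated for 48 hours with each compound at five concentrations. Insufficient inhibition: endpoint recorded as highest concentration tested. At the GI50, growth is halved. TGI: concentration producing complete growth inhibition.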 Bounds are passed on as bounds.

The GI50 is the concentration at which growth is held to half of that of the control. Usually TGI stands for the concentration at which net growth stops. Read a high TGI as less potent growth arrest.

As for `[N-]=[N+]=NCCCn1c2c(c3ccccc3c1=O)C(=O)c1cc3c(cc1-2)OCO3`, the GI50 in the experiment on HOP-62 NSCLC is 17.6 µM; with UACC-62 melanoma, 26.9 µM; with K-562 leukemia it was 25.9 µM; with A498 renal, 75 µM; in the experiment on HCT-15 colon it was over 100 µM; in the experiment with SF-295 CNS it was 44.1 µM. In addition, the GI50 in the experiment on RPMI-8226 leukemia is over 100 µM; in the experiment with UACC-257 melanoma, over 100 µM; in the experiment on PC-3 prostate it was over 100 µM; with SF-268 CNS, 81.7 µM. Further, the TGI in the experiment with HOP-62 NSCLC, in the experiment with UACC-62 melanoma, in the experiment on K-562 leukemia, in the experiment on A498 renal, in the experiment with HCT-15 colon and in the experiment on SF-295 CNS was over 100 µM throughout. In addition, the TGI with RPMI-8226 leukemia, with UACC-257 melanoma, with PC-3 prostate and in the experiment on SF-268 CNS was over 100 µM throughout.

For `Nc1ncnc2c1ncn2Cc1ccc(CCl)cc1`, the GI50 is 34.5 µM in the experiment with HOP-62 NSCLC; 19.6 µM with UACC-62 melanoma; 14.9 µM with K-562 leukemia; 12.6 µM with A498 renal; 21.9 µM in the experiment on HCT-15 colon; 15.7 µM in the experiment with SF-295 CNS. Moreover, the GI50 is 15.1 µM in the experiment with RPMI-8226 leukemia, 17.9 µM in the experiment with UACC-257 melanoma, 20.8 µM with PC-3 prostate and 21.8 µM in the experiment with SF-268 CNS. Also, the TGI was over 100 µM with HOP-62 NSCLC; 34.6 µM in the experiment on UACC-62 melanoma; over 100 µM in the experiment with K-562 leukemia; 31.9 µM in the experiment on A498 renal; 41.5 µM in the experiment on HCT-15 colon; 34.4 µM in the experiment with SF-295 CNS. Moreover, the TGI is over 100 µM with RPMI-8226 leukemia, 34.8 µM in the experiment on UACC-257 melanoma, 73.1 µM in the experiment on PC-3 prostate and 57.9 µM in the experiment with SF-268 CNS.

Turning to `OC(CBr)C(O)C(O)C(O)CBr` (configuration not stated), the TGI with HOP-62 NSCLC is over 100 µM; in the experiment with UACC-62 melanoma, > 75.4 µM and 65.1 µM; in the experiment on K-562 leukemia, over 100 µM; in the experiment on A498 renal, over 100 µM; in the experiment on HCT-15 colon, over 100 µM; with SF-295 CNS, over 100 µM. Further, the TGI in the experiment on RPMI-8226 leukemia, in the experiment with UACC-257 melanoma, with PC-3 prostate and with SF-268 CNS was over 100 µM throughout. For the same compound, the GI50 was 19.9 µM and 9.75 µM in the experiment on UACC-62 melanoma; over 100 µM with HCT-15 colon; 23.2 µM and > 72.9 µM with SF-295 CNS; > 40.6 µM and 19.3 µM with SF-268 CNS.

On to `CCN(CC(O)COc1ccc2c(c1)[n+]([O-])nc(N)[n+]2[O-])C(C)=O` (configuration not stated), for which the TGI in the experiment with HOP-62 NSCLC, with UACC-62 melanoma, in the experiment on K-562 leukemia, in the experiment with A498 renal, in the experiment on HCT-15 colon and in the experiment on SF-295 CNS was over 100 µM in each case. The TGI with RPMI-8226 leukemia, in the experiment with UACC-257 melanoma, in the experiment with PC-3 prostate and in the experiment with SF-268 CNS was over 100 µM each time.

As for `Cc1cc(S(=O)(=O)Nc2nc3ccccc3s2)c(SCc2ccccc2)cc1Cl`, the GI50 with HOP-62 NSCLC is 31.6 µM; in the experiment with UACC-62 melanoma, 10.8 µM; in the experiment on K-562 leukemia, 15.6 µM; in the experiment on A498 renal it was 12.9 µM; in the experiment with HCT-15 colon, 15.2 µM; with SF-295 CNS it was 11 µM. The GI50 with RPMI-8226 leukemia was 9.25 µM; with UACC-257 melanoma it was 18.3 µM; with PC-3 prostate it was 13.5 µM; in the experiment on SF-268 CNS, 27.1 µM. Besides, the TGI is over 100 µM with HOP-62 NSCLC; 27.9 µM in the experiment with UACC-62 melanoma; over 100 µM with K-562 leukemia; 28.6 µM with A498 renal; 30.8 µM with HCT-15 colon; 32.4 µM with SF-295 CNS. Besides, the TGI turned out to be 37.2 µM in the experiment on RPMI-8226 leukemia, 45.9 µM in the experiment on UACC-257 melanoma, 28.8 µM with PC-3 prostate and 73.9 µM with SF-268 CNS.

With `Cc1c(-c2c(F)cc(C(N)=O)c3[nH]c4c(c23)CC[C@H](C(C)(C)O)C4)cccc1-n1c(=O)c2cccc(F)c2n(C)c1=O`, the GI50 is 3.39 µM in the experiment on HOP-62 NSCLC; 3 µM in the experiment with UACC-62 melanoma; 3.61 µM with K-562 leukemia; 2.8 µM in the experiment on A498 renal; 2.7 µM in the experiment on HCT-15 colon; 4.36 µM in the experiment on SF-295 CNS. The GI50 with RPMI-8226 leukemia was 2.82 µM; in the experiment with UACC-257 melanoma it was 2.9 µM; with PC-3 prostate, 2.67 µM; in the experiment on SF-268 CNS, 4.91 µM. The TGI in the experiment on HOP-62 NSCLC was over 100 µM; in the experiment on UACC-62 melanoma, over 100 µM; in the experiment on K-562 leukemia, over 100 µM; in the experiment on A498 renal, 10.2 µM; in the experiment on HCT-15 colon it was over 100 µM; in the experiment on SF-295 CNS, 39.6 µM. Besides, the TGI with RPMI-8226 leukemia is 9.01 µM; with UACC-257 melanoma, over 100 µM; with PC-3 prostate, over 100 µM; in the experiment on SF-268 CNS, over 100 µM.

Regarding `O=[N+]([O-])c1ccc(NC(c2ccccc2)c2ccc3cccnc3c2O)cc1` (configuration not stated), the GI50 was 0.537 µM in the experiment on HOP-62 NSCLC; 0.51 µM in the experiment on UACC-62 melanoma; 0.376 µM with K-562 leukemia; 0.634 µM with A498 renal; 0.326 µM in the experiment on HCT-15 colon; 0.314 µM with SF-295 CNS. The GI50 in the experiment on RPMI-8226 leukemia is 0.313 µM; with UACC-257 melanoma, 0.548 µM; in the experiment with PC-3 prostate, 0.586 µM; in the experiment with SF-268 CNS it was 0.378 µM. Besides, the TGI in the experiment with HOP-62 NSCLC was over 100 µM; in the experiment on UACC-62 melanoma it was over 100 µM; in the experiment on K-562 leukemia, over 100 µM; in the experiment with A498 renal, 8.13 µM; in the experiment on HCT-15 colon it was over 100 µM; in the experiment with SF-295 CNS it was over 100 µM. The TGI in the experiment on RPMI-8226 leukemia was over 100 µM; in the experiment with UACC-257 melanoma, 6.67 µM; with PC-3 prostate, over 100 µM; with SF-268 CNS, over 100 µM.

For `CCN(Cc1c(F)cccc1C(F)(F)F)c1ccc(CO)c(Cl)c1`, the GI50 with HOP-62 NSCLC is 13.7 µM; in the experiment with K-562 leukemia, 0.692 µM; in the experiment on A498 renal, under 0.0191 µM; in the experiment with HCT-15 colon it was 12.8 µM; with RPMI-8226 leukemia, 1.47 µM; in the experiment on UACC-257 melanoma, under 0.0407 µM. Moreover, the GI50 with PC-3 prostate was 12.3 µM; with SF-268 CNS it was 16.6 µM. Further, the TGI with HOP-62 NSCLC was 26.6 µM; with UACC-62 melanoma it was 12.6 µM; in the experiment with K-562 leukemia, 13 µM; in the experiment with A498 renal, 0.0463 µM; with HCT-15 colon, 27.1 µM; with SF-295 CNS it was 1.12 µM. Moreover, the TGI in the experiment with RPMI-8226 leukemia came out at 21.9 µM; with UACC-257 melanoma, 0.187 µM; in the experiment with PC-3 prostate, 25.3 µM; in the experiment on SF-268 CNS, 31.5 µM.

For the compound `Cc1cccc(Nc2ncc(-c3ccccc3)o2)c1`, the GI50 in the experiment on HOP-62 NSCLC, in the experiment on UACC-62 melanoma, with K-562 leukemia, in the experiment on A498 renal, with HCT-15 colon and in the experiment with SF-295 CNS was over 25 µM in each case. The GI50 in the experiment with RPMI-8226 leukemia, with UACC-257 melanoma, in the experiment on PC-3 prostate and in the experiment with SF-268 CNS was over 25 µM each time. Further, the TGI in the experiment on HOP-62 NSCLC, in the experiment with UACC-62 melanoma, in the experiment with K-562 leukemia, in the experiment on A498 renal, in the experiment on HCT-15 colon and in the experiment with SF-295 CNS was over 25 µM each time. The TGI with RPMI-8226 leukemia, in the experiment with UACC-257 melanoma, in the experiment with PC-3 prostate and in the experiment with SF-268 CNS was over 25 µM each time.

`CN(N=O)N1C(=O)SCC(c2ccccc2)(c2ccccc2)C1=O`: the TGI with HOP-62 NSCLC, in the experiment with UACC-62 melanoma, with K-562 leukemia, with A498 renal, with HCT-15 colon and with SF-295 CNS was over 100 µM throughout. Also, the TGI was 67.6 µM with RPMI-8226 leukemia, over 100 µM in the experiment on UACC-257 melanoma, over 100 µM in the experiment on PC-3 prostate and over 100 µM in the experiment on SF-268 CNS.

Take `NC(=O)C1CCCN1Cc1ccc2c(c1)OCO2` (configuration not stated): the TGI in the experiment on HOP-62 NSCLC, in the experiment on UACC-62 melanoma, with K-562 leukemia, with A498 renal, in the experiment with HCT-15 colon and in the experiment with SF-295 CNS was over 100 µM each time. Also, the TGI with RPMI-8226 leukemia, with UACC-257 melanoma, in the experiment with PC-3 prostate and with SF-268 CNS was over 100 µM each time.

As for `CNC(=O)c1cc(Oc2ccc(NC(=O)Nc3ccc(Cl)c(C(F)(F)F)c3)cc2)ccn1`, the GI50 with HOP-62 NSCLC is 2.78 µM and 2.59 µM and 2.01 µM; in the experiment on UACC-62 melanoma, 2.4 µM and 1.96 µM and 1.7 µM; with K-562 leukemia, 1.7 µM and 2.5 µM and 2.53 µM; in the experiment with A498 renal, 3.1 µM and 2.27 µM and 2.15 µM; in the experiment with HCT-15 colon, 2.76 µM and 3.18 µM and 2.65 µM; with SF-295 CNS, 2.34 µM and 1.83 µM and 1.69 µM. Moreover, the GI50 is 1.5 µM and 2.37 µM and 1.74 µM in the experiment with RPMI-8226 leukemia; 2.14 µM and 1.99 µM and 2.2 µM in the experiment with UACC-257 melanoma; 2.2 µM and 2.6 µM and 2.14 µM with PC-3 prostate; 4.15 µM and 2.73 µM and 2.63 µM with SF-268 CNS. Further, the TGI with HOP-62 NSCLC was > 10 µM and 7.97 µM and 4.81 µM; with UACC-62 melanoma, 8.52 µM and 5.23 µM and 4.49 µM; with K-562 leukemia, over 100 µM; with A498 renal, 9.48 µM and 6.38 µM and 6.52 µM; in the experiment with HCT-15 colon, > 10 µM and 12.3 µM and 9.84 µM; with SF-295 CNS, > 10 µM and 5.33 µM and 4.56 µM. Also, the TGI was 6.25 µM and 6.93 µM and 6.04 µM in the experiment on RPMI-8226 leukemia; 6.41 µM and 5.16 µM and 6.15 µM in the experiment with UACC-257 melanoma; 8.51 µM and 8.9 µM and 8.57 µM with PC-3 prostate; > 10 µM and 10.8 µM and 7.88 µM with SF-268 CNS.
